US20050250752A1, “Cembranoids with chemopreventive activity” (priority 2002, published 2005)

Columns and labels:
Raji cells = experiment: Viability of treated Raji cells (Trypan Blue staining); assay type: cell-based
Procedure: (§1) The inhibition of EBV-EA activation was assayed using Raji cells (virus non-producer type). The indicator cells (Raji, 1×10^6/ml) were incubated at 37° C. for 48 h in 1 ml of medium containing n-butyric acid (4 mmol), TPA(12-O-tetradecanoylphorbol 13-acetate)(32 pmol=20 ng in 2 μl DMSO) as inducer and various amounts of test compounds in 5 μl DMSO. Smears were made from the cell suspension, and the activated cells, which were stained by EBV-EA positive serum from nasopharygeal carcinoma patients were detected by an indirect immunofluorescence technique. For each compound, assays were performed in triplicate. The average EBV-EA induction of the test compounds was expressed as a relative ratio to the control experiment (100%), which was carried out only with n-butyric acid plus TPA. The viability of treated Raji cells was assayed by the Trypan Blue staining method.

[1] = test system: Epstein-Barr virus early antigen (EBV-EA) of Raji cells induced by tumor promoter (TPA); experiment: Inhibition of EBV-EA activation induced by TPA in Raji cells; assay type: cell-based; details: TPA 32 pmol, Raji cells, 48 h
Procedure: as §1

[2] = test system: papillomas (mouse skin carcinogenesis induced by DMBA/TPA); experiment: Two-stage mouse skin carcinogenesis model induced by DMBA/TPA; assay type: in vivo, mouse (female ICR); details: topical 85 nm 1 hour before TPA, ICR mice
Procedure: In the two-stage mouse skin carcinogenesis model induced by DMBA/TPA, the animals (specific pathogen-free female ICR, 6 weeks old) were divided into 5 groups, 15 mice each. The back of each mouse was shaved with surgical clippers, and the mice were topically treated with DMBA (100 μg, 390 nmol) in acetone (0.1 ml) as an initiation treatment. For the positive control group, 1 week after initiation with DMBA, mice were promoted by the application with TPA (1 μg, 1.7 nmol) in acetone (0.1 ml) twice a week. The other four groups received a topical application of each of the sarcophine semi-synthetic derivatives (85 nm) 1 hour before application of the tumor promoter. The incidence of papillomas was observed weekly for 20 weeks. The percentage of mice bearing papillomas and the average number of papillomas per mouse were recorded.

[3] = x 1000 mol ratio/TPA (32 nmol/mL)

## 13S-hydroxysarcophine [Compound 4]
Raji cells; x 10 mol ratio/TPA
  viability percentage of Raji cells (indicator cells): > 80%
Raji cells; x 100 mol ratio/TPA
  viability percentage of Raji cells (indicator cells): > 80%
Raji cells; x 500 mol ratio/TPA
  viability percentage of Raji cells (indicator cells): > 80%
Raji cells; [3]
  viability percentage of Raji cells (indicator cells): 60%
[1]; x 10 mol ratio/TPA
  EBV-EA induction, percentage relative to the positive control value (100%): 100%
[1]; x 100 mol ratio/TPA
  EBV-EA induction, percentage relative to the positive control value (100%): 81.3%
[1]; x 500 mol ratio/TPA
  EBV-EA induction, percentage relative to the positive control value (100%): 62.8%
[1]; [3]
  EBV-EA induction, percentage relative to the positive control value (100%): 14.2%

## CC1=C2CC/C(C)=C/CC[C@]3(C)O[C@H]3CC/C(C)=C/[C@@H]2OC1=O [Compound 3, Sarcophine, reference compound]
Raji cells; human, 48 h, 0.32 nmol/mL
  viability percentage of Raji cells (indicator cells): > 80%
Raji cells; human, 48 h, 3.2 nmol/mL
  viability percentage of Raji cells (indicator cells): > 80%
Raji cells; x 500 mol ratio/TPA
  viability percentage of Raji cells (indicator cells): > 80%
Raji cells; [3]
  viability percentage of Raji cells (indicator cells): 60%
[1]; x 10 mol ratio/TPA
  EBV-EA induction, percentage relative to the positive control value (100%): 100%
[1]; x 100 mol ratio/TPA
  EBV-EA induction, percentage relative to the positive control value (100%): 84.0%
[1]; x 500 mol ratio/TPA
  EBV-EA induction, percentage relative to the positive control value (100%): 67.5%
[1]; [3]
  EBV-EA induction, percentage relative to the positive control value (100%): 19.6%

## CC1=C2CC/C(C=O)=C/CC[C@]3(C)O[C@H]3CC/C(C)=C/[C@@H]2OC1=O [Compound 6, sarcophine-20-carboxyaldehyde]
Raji cells; x 10 mol ratio/TPA
  viability percentage of Raji cells (indicator cells): > 80%
Raji cells; x 100 mol ratio/TPA
  viability percentage of Raji cells (indicator cells): > 80%
Raji cells; x 500 mol ratio/TPA
  viability percentage of Raji cells (indicator cells): > 80%
Raji cells; [3]
  viability percentage of Raji cells (indicator cells): 60%
[1]; x 10 mol ratio/TPA
  EBV-EA induction, percentage relative to the positive control value (100%): 96.0%
[1]; x 100 mol ratio/TPA
  EBV-EA induction, percentage relative to the positive control value (100%): 78.2%
[1]; x 500 mol ratio/TPA
  EBV-EA induction, percentage relative to the positive control value (100%): 60.8%
[1]; [3]
  EBV-EA induction, percentage relative to the positive control value (100%): 12.7%

## C/C(CO)=C1\CC/C(C)=C/CCC2(C)OC2CC/C(C)=C/C1O (stereo not drawn) [Compound 10]
Raji cells; x 10 mol ratio/TPA
  viability percentage of Raji cells (indicator cells): > 80%
Raji cells; x 100 mol ratio/TPA
  viability percentage of Raji cells (indicator cells): > 80%
Raji cells; x 500 mol ratio/TPA
  viability percentage of Raji cells (indicator cells): > 80%
Raji cells; [3]
  viability percentage of Raji cells (indicator cells): 60%
[1]; x 10 mol ratio/TPA
  EBV-EA induction, percentage relative to the positive control value (100%): 94.1%
[1]; x 100 mol ratio/TPA
  EBV-EA induction, percentage relative to the positive control value (100%): 75.5%
[1]; x 500 mol ratio/TPA
  EBV-EA induction, percentage relative to the positive control value (100%): 57.3%
[1]; [3]
  EBV-EA induction, percentage relative to the positive control value (100%): 9.6%
[2]; week 1 of promotion
  Papilloma Bearer (%): 0.0%
  Papillomas/mouse: 0.0
[2]; week 2 of promotion
  Papilloma Bearer (%): 0.0%
  Papillomas/mouse: 0.0
[2]; week 3 of promotion
  Papilloma Bearer (%): 0.0%
  Papillomas/mouse: 0.0
[2]; week 4 of promotion
  Papilloma Bearer (%): 0.0%
  Papillomas/mouse: 0.0
[2]; week 5 of promotion
  Papilloma Bearer (%): 0.0%
  Papillomas/mouse: 0.0
[2]; week 6 of promotion
  Papilloma Bearer (%): 0.0%
  Papillomas/mouse: 0.0
[2]; week 7 of promotion
  Papilloma Bearer (%): 0.0%
  Papillomas/mouse: 0.0
[2]; week 8 of promotion
  Papilloma Bearer (%): 13.3%
  Papillomas/mouse: 0.5
[2]; week 9 of promotion
  Papilloma Bearer (%): 13.3%
  Papillomas/mouse: 0.9
[2]; week 10 of promotion
  Papilloma Bearer (%): 26.6%
  Papillomas/mouse: 1.3
[2]; week 11 of promotion
  Papilloma Bearer (%): 33.3%
  Papillomas/mouse: 1.8
[2]; week 12 of promotion
  Papilloma Bearer (%): 40.0%
  Papillomas/mouse: 2.1
[2]; week 13 of promotion
  Papilloma Bearer (%): 46.6%
  Papillomas/mouse: 2.3
[2]; week 14 of promotion
  Papilloma Bearer (%): 53.3%
  Papillomas/mouse: 2.5
[2]; week 15 of promotion
  Papilloma Bearer (%): 60.0%
  Papillomas/mouse: 2.7
[2]; week 16 of promotion
  Papilloma Bearer (%): 73.3%
  Papillomas/mouse: 3.1
[2]; week 17 of promotion
  Papilloma Bearer (%): 73.3%
  Papillomas/mouse: 3.6
[2]; week 18 of promotion
  Papilloma Bearer (%): 80.0%
  Papillomas/mouse: 4.0
[2]; week 19 of promotion
  Papilloma Bearer (%): 80.0%
  Papillomas/mouse: 4.6
[2]; week 20 of promotion
  Papilloma Bearer (%): 80.0%
  Papillomas/mouse: 4.8
